The values that follow come from patent US20240228489A1, “POSITIVE ALLOSTERIC MODULATORS OF THE MUSCARINIC ACETYLCHOLINE RECEPTOR M1” (Vanderbilt University, priority 2021, published 2024).

A value given as a limit tells only on which side of the number the result lay.

In experiment [1] the target is T1, human mAChR M1 (Homo sapiens, UniProt P11229).
T1 sequence (P11229 1-460): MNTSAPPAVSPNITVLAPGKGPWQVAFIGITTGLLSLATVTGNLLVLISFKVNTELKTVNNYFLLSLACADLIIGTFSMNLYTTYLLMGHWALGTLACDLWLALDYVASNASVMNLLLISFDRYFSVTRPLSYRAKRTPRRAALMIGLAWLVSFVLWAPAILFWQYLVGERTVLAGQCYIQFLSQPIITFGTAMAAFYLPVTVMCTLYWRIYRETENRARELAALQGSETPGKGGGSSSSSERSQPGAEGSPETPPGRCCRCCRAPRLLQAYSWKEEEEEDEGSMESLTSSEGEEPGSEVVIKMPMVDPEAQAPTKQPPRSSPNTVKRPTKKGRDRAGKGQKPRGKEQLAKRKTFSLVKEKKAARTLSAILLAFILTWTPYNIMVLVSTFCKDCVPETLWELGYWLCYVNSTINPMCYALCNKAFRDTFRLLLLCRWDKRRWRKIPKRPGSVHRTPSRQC
Briefly: mAChR M1 cell-based functional assay (calcium mobilization), agonist mode: compound alone, Emax relative to acetylcholine maximum. The settings on record: for Agonist Activity Human M1 EC50 / EC50: human mAChR M1; for Emax: relative to the maximum for acetylcholine. An outline of the steps:
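Agonist activity is the concentration-dependent rise in intracellular calcium (Fluo-4, 1 Hz read) after compound addition, measured before any acetylcholine was added, in stable hM1 CHO-K1 cells. Curves were 11-point, 1:3 dilutions fitted by four-parameter logistic. Emax is given as a fraction of maximal acetylcholine response.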

Experiment [2] concerns the target T1, human mAChR M1. Briefly: mAChR M1 cell-based functional assay (calcium mobilization), PAM mode: increase in the EC20 acetylcholine response. The method, boiled down:
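PAM readout is the concentration-dependent rise in the EC20 acetylcholine calcium signal, fitted to a four-parameter logistic (EC50, Emax). Compounds were preincubated from 4 s before ACh at 144 s (EC20) and 230 s (EC80). hM1-expressing CHO-K1 cells loaded with Fluo-4, FDSS ratio read.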

In the case of `[2H]C1([2H])c2ncccc2C(=O)N1Cc1c(F)cc(-c2cc(F)c3nn(C)cc3c2)cc1F` [Compound 7, 6-(2,6-difluoro-4-(7-fluoro-2-methyl-2H-indazol-5-yl)benzyl)-6,7-dihydro-5H-pyrrolo[3,4-b]pyridin-5-one-7,7-d2], at human mAChR M1 [1], the “Agonist Activity Human M1 EC50” value is reported as “Inactive” and the Emax was 4%. At human mAChR M1 [2], the EC50 is 952 nM and the maximal effect (Emax) is 53%.
Taken in the same sequence, the figures for `[2H]C1([2H])c2ncccc2C(=O)N1Cc1c(F)cc(-c2cccc3nn(C(F)F)cc23)cc1F` [Compound 50, 6-(4-(2-(difluoromethyl)-2H-indazol-4-yl)-2,6-difluorobenzyl)-6,7-dihydro-5H-pyrrolo[3,4-b]pyridin-5-one-7,7-d2] were “Inactive”, 4%, 332 nM and 85%.
Regarding `[2H]C1([2H])c2ncccc2C(=O)N1Cc1c(F)cc(-c2cn(C)c(=O)c3nn(C)cc23)cc1F` [Compound 79, 4-(3,5-difluoro-4-((5-oxo-5,7-dihydro-6H-pyrrolo[3,4-b]pyridin-6-yl-7,7-d2)methyl)phenyl)-2,6-dimethyl-2,6-dihydro-7H-pyrazolo[3,4-c]pyridin-7-one], at human mAChR M1 [1], the concentration for a half-maximal effect (EC50) was no less than 10000 nM and the Emax was 16%. Moreover, on human mAChR M1 [2], the EC50 amounted to 793 nM and the Emax came out at 79%.
Turning to `[2H]C1([2H])c2ncccc2C(=O)N1Cc1c(F)cc(-c2ccc(OC)c3nn(C)cc23)cc1Cl` [Compound 163, 6-(2-chloro-6-fluoro-4-(7-methoxy-2-methyl-2H-indazol-4-yl)benzyl)-6,7-dihydro-5H-pyrrolo[3,4-b]pyridin-5-one-7,7-d2], on human mAChR M1 [1], the “Agonist Activity Human M1 EC50” value is recorded as “Inactive” and the Emax turned out to be 3%. On human mAChR M1 [2], the EC50 was determined as 239 nM and the Emax worked out at 81%.
In the case of `[2H]C1([2H])c2ncccc2C(=O)N1Cc1c(F)cc(-c2ccc(OC)c3nn(C([2H])([2H])[2H])cc23)cc1F` [Compound 51, 6-(2,6-difluoro-4-(7-methoxy-2-(methyl-d3)-2H-indazol-4-yl)benzyl)-6,7-dihydro-5H-pyrrolo[3,4-b]pyridin-5-one-7,7-d2], at human mAChR M1 [1], the EC50 is greater than 10000 nM and the Emax was determined as 8%. Also, on human mAChR M1 [2], the EC50 turned out to be 173 nM and the Emax came out at 89%.
As to `[2H]C([2H])([2H])Oc1ccc(-c2cc(F)c(CN3C(=O)c4cccnc4C3([2H])[2H])c(F)c2)c2cnn(C([2H])([2H])[2H])c12` [Compound 95, 6-(2,6-difluoro-4-(7-(methoxy-d3)-1-(methyl-d3)-1H-indazol-4-yl)benzyl)-6,7-dihydro-5H-pyrrolo[3,4-b]pyridin-5-one-7,7-d2], at human mAChR M1 [1], the “Agonist Activity Human M1 EC50” value is reported as “Inactive” and the Emax stood at 3%. On human mAChR M1 [2], the EC50 was 1400 nM and the Emax was 72%.
On to `[2H]C1([2H])c2ncccc2C(=O)N1Cc1c(F)cc(-c2ccc(O[C@H](C)COC)c3nn(C)cc23)cc1F` [Compound 148, (R)-6-(2,6-difluoro-4-(7-((1-methoxypropan-2-yl)oxy)-2-methyl-2H-indazol-4-yl)benzyl)-6,7-dihydro-5H-pyrrolo[3,4-b]pyridin-5-one-7,7-d2], for which, at human mAChR M1 [1], the EC50 is no less than 10000 nM and the Emax was 31%. For the same compound, at human mAChR M1 [2], the EC50 worked out at 540 nM and the Emax is 81%.
Turning to `[2H]C1([2H])c2ncccc2C(=O)N1Cc1c(F)cc(-c2ccc(OC3CN(C(=O)OC(C)(C)C)C3)c3nn(C)cc23)cc1F` [Compound 173, tert-butyl 3-((4-(3,5-difluoro-4-((5-oxo-5,7-dihydro-6H-pyrrolo[3,4-b]pyridin-6-yl-7,7-d2)methyl)phenyl)-2-methyl-2H-indaazol-7-yl)oxy)azetidine-1-carboxylate], on human mAChR M1 [1], the “Agonist Activity Human M1 EC50” value is given as “Inactive” and the Emax was 2%. Moreover, on human mAChR M1 [2], the EC50 was determined as 1340 nM and the Emax stood at 82%.
Taken in the same sequence, the figures for `[2H]C1([2H])c2ncccc2C(=O)N1Cc1c(Cl)cc(-c2cccc3nn(C([2H])([2H])[2H])cc23)cc1C1CC1` [Compound 220, 6-(2-chloro-6-cyclopropyl-4-(2-(methyl-d3)-2H-indazol-4-yl)benzyl)-6,7-dihydro-5H-pyrrolo[3,4-b]pyridin-5-one-7,7-d2] were “Inactive”, 8%, 472 nM and 86%.
Turning to `[2H]C1([2H])c2ncccc2C(=O)N1Cc1c(F)cc(-c2c(F)ccc3nn(C)cc23)cc1F` [Compound 37, 6-(2,6-difluoro-4-(5-fluoro-2-methyl-2H-indazol-4-yl)benzyl)-6,7-dihydro-5H-pyrrolo[3,4-b]pyridin-5-one-7,7-d2], on human mAChR M1 [1], the “Agonist Activity Human M1 EC50” value is “Inactive” and the Emax came to 3%. At human mAChR M1 [2], the EC50 was 2300 nM and the Emax turned out to be 64%.
Take `[2H]C1([2H])c2ncccc2C(=O)N1Cc1c(F)cc(-c2cccc3nn(C([2H])([2H])[2H])cc23)cc1N1CCC1` [Compound 222, 6-(2-(azetidin-1-yl)-6-fluoro-4-(2-(methyl-d3)-2H-indazol-4-yl)benzyl)-6,7-dihydro-5H-pyrrolo[3,4-b]pyridin-5-one-7,7-d2]: on human mAChR M1 [1], the “Agonist Activity Human M1 EC50” value was “Inactive” and the maximal response (Emax) was found to be 1%. Moreover, at human mAChR M1 [2], the EC50 amounted to 3780 nM and the Emax turned out to be 77%.
In the case of `[2H]C1([2H])c2ncccc2C(=O)N1Cc1c(F)cc(-c2cn(C)c(=O)c3c2cnn3C([2H])([2H])[2H])cc1F` [Compound 92, 4-(3,5-difluoro-4-((5-oxo-5,7-dihydro-6H-pyrrolo[3,4-b]pyridin-6-yl-7,7-d2)methyl)phenyl)-6-methyl-1-(methyl-d3)-1,6-dihydro-7H-pyrazolo[3,4-c]pyridin-7-one], at human mAChR M1 [1], the “Agonist Activity Human M1 EC50” value is given as “Inactive” and the Emax was found to be 2%. Moreover, at human mAChR M1 [2], the EC50 was 2400 nM and the Emax is 54%.
As for `[2H]C1([2H])c2ncccc2C(=O)N1Cc1ccc(-c2cncc3nn(C)cc23)cc1F` [Compound 120, 6-(2-fluoro-4-(2-methyl-2H-pyrazolo[3,4-c]pyridin-4-yl)benzyl)-6,7-dihydro-5H-pyrrolo[3,4-b]pyridin-5-one-7,7-d2], on human mAChR M1 [1], the “Agonist Activity Human M1 EC50” value is reported as “Inactive” and the Emax was 2%. Besides, at human mAChR M1 [2], the EC50 worked out at 2820 nM and the Emax is 66%.
Taken in the same sequence, the figures for `[2H]C1([2H])c2ncccc2C(=O)N1Cc1ccc(-c2ccc3nn(C)cc3c2C)cc1` [Compound 238, 6-(4-(2,4-dimethyl-2H-indazol-5-yl)benzyl)-6,7-dihydro-5H-pyrrolo[3,4-b]pyridin-5-one-7,7-d2] were “Inactive”, 2%, greater than 10000 nM and 39%.
In the case of `[2H]C1([2H])c2ncccc2C(=O)N1Cc1c(F)cc(-c2ccc3c(cnn3C([2H])([2H])[2H])c2)cc1F` [Compound 101, 6-(2,6-difluoro-4-(1-(methyl-d3)-1H-indazol-5-yl)benzyl)-6,7-dihydro-5H-pyrrolo[3,4-b]pyridin-5-one-7,7-d2], on human mAChR M1 [1], the “Agonist Activity Human M1 EC50” value is reported as “Inactive” and the Emax came out at 3%. Moreover, on human mAChR M1 [2], the EC50 amounted to 1410 nM and the Emax was found to be 75%.
As for `[2H]C1([2H])c2ncccc2C(=O)N1Cc1c(F)cc(-c2ccc(O[C@@H](C)COC)c3nn(C)cc23)cc1F` [Compound 171, (S)-6-(2,6-difluoro-4-(7-((1-methoxypropan-2-yl)oxy)-2-methyl-2H-indazol-4-yl)benzyl)-6,7-dihydro-5H-pyrrolo[3,4-b]pyridin-5-one-7,7-d2], the EC50 is no less than 10000 nM on human mAChR M1 [1] and 337 nM at human mAChR M1 [2]. Further, the Emax at human mAChR M1 [1] was 31%; on human mAChR M1 [2], 81%.
Regarding `[2H]C1([2H])c2ncccc2C(=O)N1Cc1ccc(-c2ccc(F)c3nn(C)cc23)cc1C` [Compound 48, 6-(4-(7-fluoro-2-methyl-2H-indazol-4-yl)-2-methylbenzyl)-6,7-dihydro-5H-pyrrolo[3,4-b]pyridin-5-one-7,7-d2], on human mAChR M1 [1], the EC50 is greater than 10000 nM and the Emax stood at 9%. At human mAChR M1 [2], the EC50 was found to be 488 nM and the Emax is 85%.
Taken in the same sequence, the figures for `[2H]C([2H])([2H])Oc1cnc2c(c1)C(=O)N(Cc1ccc(-c3cccc4nn(C)cc34)cc1F)C2([2H])[2H]` [Compound 82, 6-(2-fluoro-4-(2-methyl-2H-indazol-4-yl)benzyl)-3-(methoxy-d3)-6,7-dihydro-5H-pyrrolo[3,4-b]pyridin-5-one-7,7-d2] were 4930 nM, 25%, 120 nM and 79%.
On to `[2H]C1([2H])c2ncccc2C(=O)N1Cc1c(F)cc(-c2ccc(OCSC)c3nn(C)cc23)cc1F` [Compound 185, 6-(2,6-difluoro-4-(2-methyl-7-((methylthio)methoxy)-2H-indazol-4-yl)benzyl)-6,7-dihydro-5H-pyrrolo[3,4-b]pyridin-5-one-7,7-d2], for which, at human mAChR M1 [1], the “Agonist Activity Human M1 EC50” value is recorded as “Inactive” and the Emax turned out to be 6%. In addition, at human mAChR M1 [2], the EC50 was found to be 722 nM and the Emax stood at 74%.
